Values quoted from earlier work, collected in patent US10758479B2, “Galenical form for the administration of active ingredients by transmucous means” (priority 2006, dated 2020).
Blank lines part the entries; values can stand above or below the compound they belong to.

Key:
[1] = nasal, per-mucous path

residual bioavailability (administered via the digestive tract): less than 14 % of the administered dose
SMILES: CNS(=O)(=O)Cc1ccc2[nH]cc(CCN(C)C)c2c1 [Sumatriptan]
period of action (administered enterally): about two

mean bioavailability [1]: less than 25 % of the administered dose
SMILES: C[C@]12CC[C@@H]3c4ccc(O)cc4CC[C@H]3[C@@H]1CC[C@@H]2O [estradiol]

SMILES: CN(C)C(=O)C(CCN1CCC(O)(c2ccc(Cl)cc2)CC1)(c1ccccc1)c1ccccc1 [loperamide, Loperamide]
portion of the effectively bioavailable dose (in the 2 mg administered by the digestive tract): ≤ 0.25 mg
